Converted amounts (≈) assume the structure as drawn.
What was measured:
HIV-2 ROD = test: Activity for HIV-2 ROD; settings: for TI: HIV-2 ROD; for EC50: Human immunodeficiency virus 2
[1] = Cytotoxicity (CC50) in C8166 cells; type: cell-based; settings: human
Experimental: (§1) The anti-HIV activity was determined by the “Guiding Principles of Anti HIV Drug Unclinical Pharmacodynamics” of SFDA which is tested by technology standard assay according to International Universal Standards and Methods. Where in CC50, EC50 were measured twice and took the average.

[2] = Cytotoxicity (CC50) in H9 cells; type: cell-based, human; settings: human, read-out: CC50
Experimental: as §1

[3] = Activity for HIV-2 CBL-20
HIV-2 CBL-20 = test: Activity for HIV-2 CBL-20; settings: for TI: HIV-2 CBL-20; for EC50: Human immunodeficiency virus 2
HIV-1IIIB [4] = test: Anti-HIV activity in C8166 cells; type: cell-based; settings: C8166 cells; for TI: CC50/EC50; for EC50: Human immunodeficiency virus 1, HIV-1IIIB, read-out: EC50
Experimental: as §1

HIV-1IIIB [5] = test: Anti-HIV activity in H9 cells; type: cell-based; settings: H9 cells; for TI: CC50/EC50; for EC50: Human immunodeficiency virus 1, HIV-1IIIB, read-out: EC50
Experimental: as §1

[6] = for safety at high dose: high dose (10 g/kg); for acute toxicity test finding: in vivo
[7] = Stability (degradation) in solutions of different pH; type: physicochemical
Experimental: For example, compound 67 was tested in solutions with PH=4.004, 6.864 and 9.182, and its degradation rate was […]. […] As to the Mechanism of action of the compounds, the possible binding mode between 46 and vif was predicted by docking There are five possible hydrogen bonds between them: two hydrogen bonds between the nitro group and Arg79 and Lys178, two hydrogen bonds between the oxygen atom of methoxyl group with His141 and Arg97, one hydrogen bond between the nitrogen atom of pyridine with Gly103. (The binding mode can be seen in FIG. 4)

[8] = Solubility in aqueous solution; type: physicochemical
Excerpt: Solubility is an important parameter of druggability. […] They are with good solubility and can be formulated into an oral formulation. The prodrugs can be hydrolyzed into 46 which is with good fat-solubility and TI as well as distribution.

H9 cells = test: Cytotoxicity (CC50) in H9 cells; type: cell-based, human
Experimental: as §1

HIV-1A17 = test: microbe, parasite or virus in culture; settings: Human immunodeficiency virus 1
HIVKM018 = test: microbe, parasite or virus in culture; settings: Human immunodeficiency virus 1
HIV-1TC-1 = test: microbe, parasite or virus in culture; settings: Human immunodeficiency virus 1
[9] = simulated gastric fluid, in aqueous solution (pH=2)

| Structure (SMILES) | TI (HIV-2 ROD) | EC50 (HIV-2 ROD) [µg/mL] | CC50 (Activity for HIV-2 ROD) [µg/mL] | CC50 [1] [µg/mL] | CC50 ([2]; H9 cells) [µg/mL] | CC50 [3] [µg/mL] | TI (HIV-2 CBL-20) | EC50 (HIV-2 CBL-20) [µg/mL] | TI (HIV-1IIIB [4]) | EC50 (HIV-1IIIB [4]) [µg/mL] | TI (HIV-1IIIB [5]) | EC50 (HIV-1IIIB [5]) [µg/mL] | safety at high dose [6] | acute toxicity test finding [6] | solubility [8, 9] [µg/mL] | other results |
| --- | --- | --- | --- | --- | --- | --- | --- | --- | --- | --- | --- | --- | --- | --- | --- | --- |
| COc1ccccc1NC(=O)c1c(N)cccc1Sc1ccc([N+](=O)[O-])cc1 [Compound 25, 2-amino-N-(2-methoxyphenyl)-6-(4-nitrophenylthi-o)benzamide] | 312.90 | 0.59 (≈ 1.49 µM) | 185 (≈ 467 µM) | 65.4 (≈ 165 µM) | 153 (≈ 387 µM) | 164 (≈ 414 µM) | 199.72 | 0.82 (≈ 2.07 µM) | 310.02 | 0.21 (≈ 0.531 µM) | 206.68 | 0.74 (≈ 1.87 µM) | – | – | – | – |
| COc1ccccc1NC(=O)c1c(NC(=O)CN)cccc1S(=O)(=O)c1ccc([N+](=O)[O-])cc1.Cl [Compound 67, 2-(2-aminoacetamido)-N-(2-methoxyphenyl)-6-((4-nitrophenyl)sulfonyl)benzamide hydrochloride hydrochloride] | – | 0.78 | 126 | 165 | 94.9 | 106 | – | 1.21 | – | – | – | – | very safe | no abnormal phenomenon occurred | – | degradation rate ([7]; solution PH=4.004): 0.2767; degradation rate ([7]; solution PH=6.864): 0.4956; degradation rate ([7]; solution PH=9.182): 9.182; solubility ([8]; aqueous buffer, in water with pH=7): 1730 µg/mL |
| COc1ccccc1NC(=O)c1c(N)cccc1Oc1ccc([N+](=O)[O-])cc1 [Compound 48, 2-amino-N-(2-methoxyphenyl)-6-(4-nitrop-henoxy)benzamide] | – | – | – | – | – | – | – | – | – | – | 2.14 | – | – | – | – | CC50 (H9 cells): 76.60 µg/mL (≈ 202 µM) |
| COc1ccccc1NC(=O)c1c(N)cccc1S(=O)(=O)c1ccc([N+](=O)[O-])cc1 [Compound 46, 2-amino-N-(2-methoxyphenyl)-6-((4-nitroph-enyl)sulfonyl)benzamide] | 487.8 | 0.41 (≈ 0.959 µM) | > 200 | 141 (≈ 329 µM) | – | > 200 | 444.44 | 0.45 (≈ 1.05 µM) | – | 0.096 (≈ 0.225 µM) | – | 0.66 (≈ 1.54 µM) | very safe | no abnormal phenomenon occurred | – | CC50 [2]: > 200 µg/mL; EC50 (HIV-1A17): 18.7 µg/mL (≈ 43.8 µM); EC50 (HIVKM018): 6.23 µg/mL (≈ 14.6 µM); EC50 (HIV-1TC-1): 0.11 µg/mL (≈ 0.257 µM) |
| COc1ccccc1NC(=O)c1c(NC(=O)CN)cccc1Sc1ccc([N+](=O)[O-])cc1.Cl [Compound 66, 2-(2-aminoacetamido)-N-(2-methoxyphenyl)-6-(4-nitrophenylthio)benzamide hydrochloride] | – | – | – | 78.3 | 72.3 | – | – | – | 97.01 | 0.81 | 451.69 | 0.16 | – | – | 1290 | – |
| COc1ccccc1NC(=O)c1c(NC(=O)C(N)CCCCN)cccc1Sc1ccc([N+](=O)[O-])cc1.Cl (stereo not drawn) [Compound 68, 2-(2,6-diaminohexanamido)-N-(2-methoxyphenyl)-6-((4-nitrophenyl)thio)benzamide hydrochloride] | – | – | – | 116 | 90.1 | – | – | – | – | – | – | – | – | – | 2850 | – |

Source: patent US9402819B2, “Anti-HIV compound and preparation method and use thereof” (Sichuan University, priority 2012, dated 2016)
